From the NIST ThermoML archive (doi:10.1021/je400130b)
Numbers after ± are expanded uncertainties.

Assay: molar heat capacity at constant pressure
Conditions: 101.33 kPa, Crystal, Small (less than 1 g) adiabatic calorimetry

## O=S(=O)([O-])[O-].[Cu+2].[Cu+2].[Cu+2].[OH-].[OH-].[OH-].[OH-] [copper(II) tetrahydroxide sulfate]
240 K
  molar heat capacity at constant pressure: 212.7 ± 1.1 J/K/mol
240.47 K
  molar heat capacity at constant pressure: 213.05 ± 1.1 J/K/mol
240.54 K
  molar heat capacity at constant pressure: 213.1 ± 1.1 J/K/mol
242.63 K
  molar heat capacity at constant pressure: 214.29 ± 1.1 J/K/mol
243.84 K
  molar heat capacity at constant pressure: 215.04 ± 1.1 J/K/mol
244.78 K
  molar heat capacity at constant pressure: 215.47 ± 1.1 J/K/mol
246.91 K
  molar heat capacity at constant pressure: 216.48 ± 1.1 J/K/mol
247.12 K
  molar heat capacity at constant pressure: 217.09 ± 1.1 J/K/mol
249.05 K
  molar heat capacity at constant pressure: 217.96 ± 1.1 J/K/mol
250 K
  molar heat capacity at constant pressure: 218.9 ± 1.1 J/K/mol
250.39 K
  molar heat capacity at constant pressure: 219.06 ± 1.1 J/K/mol
251.18 K
  molar heat capacity at constant pressure: 219.63 ± 1.1 J/K/mol
253.31 K
  molar heat capacity at constant pressure: 221.05 ± 1.1 J/K/mol
253.64 K
  molar heat capacity at constant pressure: 221.26 ± 1.1 J/K/mol
255.43 K
  molar heat capacity at constant pressure: 222.37 ± 1.1 J/K/mol
256.89 K
  molar heat capacity at constant pressure: 223.31 ± 1.1 J/K/mol
257.55 K
  molar heat capacity at constant pressure: 223.64 ± 1.1 J/K/mol
259.67 K
  molar heat capacity at constant pressure: 224.86 ± 1.1 J/K/mol
260 K
  molar heat capacity at constant pressure: 225.1 ± 1.1 J/K/mol
260.12 K
  molar heat capacity at constant pressure: 225.23 ± 1.1 J/K/mol
261.78 K
  molar heat capacity at constant pressure: 226.04 ± 1.1 J/K/mol
263.34 K
  molar heat capacity at constant pressure: 227.07 ± 1.1 J/K/mol
263.89 K
  molar heat capacity at constant pressure: 227.38 ± 1.1 J/K/mol
265.99 K
  molar heat capacity at constant pressure: 228.04 ± 1.1 J/K/mol
266.52 K
  molar heat capacity at constant pressure: 229.07 ± 1.1 J/K/mol
268.1 K
  molar heat capacity at constant pressure: 229.52 ± 1.1 J/K/mol
269.68 K
  molar heat capacity at constant pressure: 230.88 ± 1.1 J/K/mol
270 K
  molar heat capacity at constant pressure: 231.1 ± 1.1 J/K/mol
270.18 K
  molar heat capacity at constant pressure: 231.01 ± 1.1 J/K/mol
272.26 K
  molar heat capacity at constant pressure: 232.16 ± 1.1 J/K/mol
272.81 K
  molar heat capacity at constant pressure: 232.32 ± 1.1 J/K/mol
273.15 K
  molar heat capacity at constant pressure: 232.9 ± 1.1 J/K/mol
274.34 K
  molar heat capacity at constant pressure: 233.42 ± 1.1 J/K/mol
275.92 K
  molar heat capacity at constant pressure: 234.35 ± 1.1 J/K/mol
276.41 K
  molar heat capacity at constant pressure: 234 ± 1.1 J/K/mol
278.48 K
  molar heat capacity at constant pressure: 235.58 ± 1.1 J/K/mol
278.99 K
  molar heat capacity at constant pressure: 236.21 ± 1.1 J/K/mol
280 K
  molar heat capacity at constant pressure: 236.7 ± 1.1 J/K/mol
280.47 K
  molar heat capacity at constant pressure: 237.16 ± 1.1 J/K/mol
282.03 K
  molar heat capacity at constant pressure: 237.88 ± 1.2 J/K/mol
282.51 K
  molar heat capacity at constant pressure: 238.07 ± 1.2 J/K/mol
284.55 K
  molar heat capacity at constant pressure: 239.1 ± 1.2 J/K/mol
284.97 K
  molar heat capacity at constant pressure: 239.95 ± 1.2 J/K/mol
286.57 K
  molar heat capacity at constant pressure: 240.28 ± 1.2 J/K/mol
287.96 K
  molar heat capacity at constant pressure: 241.21 ± 1.2 J/K/mol
288.59 K
  molar heat capacity at constant pressure: 241.63 ± 1.2 J/K/mol
290 K
  molar heat capacity at constant pressure: 242.2 ± 1.2 J/K/mol
290.6 K
  molar heat capacity at constant pressure: 242.66 ± 1.2 J/K/mol
290.92 K
  molar heat capacity at constant pressure: 242.32 ± 1.2 J/K/mol
292.61 K
  molar heat capacity at constant pressure: 243.54 ± 1.2 J/K/mol
293.88 K
  molar heat capacity at constant pressure: 243.77 ± 1.2 J/K/mol
294.6 K
  molar heat capacity at constant pressure: 244.61 ± 1.2 J/K/mol
296.58 K
  molar heat capacity at constant pressure: 245.63 ± 1.2 J/K/mol
296.81 K
  molar heat capacity at constant pressure: 245.8 ± 1.2 J/K/mol
298.15 K
  molar heat capacity at constant pressure: 246.6 ± 1.2 J/K/mol
298.56 K
  molar heat capacity at constant pressure: 246.66 ± 1.2 J/K/mol
299.68 K
  molar heat capacity at constant pressure: 247.51 ± 1.2 J/K/mol
300 K
  molar heat capacity at constant pressure: 247.6 ± 1.2 J/K/mol
300.53 K
  molar heat capacity at constant pressure: 247.64 ± 1.2 J/K/mol
302.49 K
  molar heat capacity at constant pressure: 248.72 ± 1.2 J/K/mol
302.54 K
  molar heat capacity at constant pressure: 249.04 ± 1.2 J/K/mol
304.44 K
  molar heat capacity at constant pressure: 249.67 ± 1.2 J/K/mol
305.37 K
  molar heat capacity at constant pressure: 250.52 ± 1.2 J/K/mol
306.39 K
  molar heat capacity at constant pressure: 250.6 ± 1.2 J/K/mol
308.18 K
  molar heat capacity at constant pressure: 251.84 ± 1.2 J/K/mol
308.34 K
  molar heat capacity at constant pressure: 251.49 ± 1.2 J/K/mol
310 K
  molar heat capacity at constant pressure: 252.8 ± 1.2 J/K/mol
310.27 K
  molar heat capacity at constant pressure: 252.37 ± 1.2 J/K/mol
310.97 K
  molar heat capacity at constant pressure: 253.24 ± 1.2 J/K/mol
312.09 K
  molar heat capacity at constant pressure: 253.75 ± 1.2 J/K/mol
313.74 K
  molar heat capacity at constant pressure: 254.51 ± 1.2 J/K/mol
314.01 K
  molar heat capacity at constant pressure: 254.23 ± 1.2 J/K/mol
315.94 K
  molar heat capacity at constant pressure: 255.03 ± 1.2 J/K/mol
316.5 K
  molar heat capacity at constant pressure: 255.82 ± 1.2 J/K/mol
317.86 K
  molar heat capacity at constant pressure: 255.92 ± 1.2 J/K/mol
319.23 K
  molar heat capacity at constant pressure: 257.03 ± 1.2 J/K/mol
319.77 K
  molar heat capacity at constant pressure: 256.66 ± 1.2 J/K/mol
320 K
  molar heat capacity at constant pressure: 257.4 ± 1.2 J/K/mol
321.68 K
  molar heat capacity at constant pressure: 257.57 ± 1.2 J/K/mol
321.95 K
  molar heat capacity at constant pressure: 258.16 ± 1.2 J/K/mol
323.58 K
  molar heat capacity at constant pressure: 258.37 ± 1.2 J/K/mol
